Columns and labels:
Assay in all cases: cell viability (% survival relative to DMSO control); higher = less cytotoxic
Conditions in all cases: 72 h
[1] = tested on: myeloid leukemia patient primary cells Pat.3
Method in brief: (§1)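 Thawed, Ficoll-purified mononuclear cells from AML or CML patients in RPMI 1640 with 10% FBS were seeded at 10,000 cells/well on 384-well plates pre-printed with 70 compounds at five tenfold concentrations, 1–10,000 nM, in duplicate, for 72 h. Viability was read by CellTiter-Glo and normalised to DMSO and 10 μM proteasome-inhibitor wells. Where given, area under the curve came from four-parameter log-logistic fits (drc, PharmacoGx R packages).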

[2] = tested on: myeloid leukemia patient primary cells Pat.4
Method in brief: as §1

[3] = tested on: myeloid leukemia patient primary cells Pat.5
Method in brief: as §1

[4] = tested on: myeloid leukemia patient primary cells Pat.1
Method in brief: as §1

[5] = tested on: myeloid leukemia patient primary cells Pat.2
Method in brief: as §1

[6] = tested on: myeloid leukemia patient primary cells Pat.9
Method in brief: as §1

[7] = tested on: myeloid leukemia patient primary cells Pat.7
Method in brief: as §1

[8] = tested on: myeloid leukemia patient primary cells Pat.8
Method in brief: as §1

[9] = tested on: myeloid leukemia patient primary cells Pat.14
Method in brief: as §1

[10] = tested on: myeloid leukemia patient primary cells Pat.13
Method in brief: as §1

Compound: CCC(=O)N1CCN(c2ccc(-n3c(=O)ccc4cnc5ccc(-c6cnc7ccccc7c6)cc5c43)cc2C(F)(F)F)CC1 [Torin1]
- cell viability ([1]; 1 nM): 96.1%
- cell viability ([1]; 10 nM): > 100%
- cell viability ([1]; 100 nM): 93.2%
- cell viability ([1]; 1000 nM): 66.8%
- cell viability ([1]; 10000 nM): 62.1%
- cell viability ([2]; 1 nM): 91.6%
- cell viability ([2]; 10 nM): 76%
- cell viability ([2]; 100 nM): 59.8%
- cell viability ([2]; 1000 nM): 40.2%
- cell viability ([2]; 10000 nM): 12.8%
- cell viability ([3]; 1 nM): 54.5%
- cell viability ([3]; 10 nM): 13.5%
- cell viability ([3]; 100 nM): 53.9%
- cell viability ([3]; 1000 nM): 1.18%
- cell viability ([3]; 10000 nM): 0.265%
- cell viability ([4]; 1 nM): 85.1%
- cell viability ([4]; 10 nM): 60.4%
- cell viability ([4]; 100 nM): 44.2%
- cell viability ([4]; 1000 nM): 30.2%
- cell viability ([4]; 10000 nM): 21.5%
- cell viability ([5]; 1 nM): 92.5%
- cell viability ([5]; 10 nM): 94.3%
- cell viability ([5]; 100 nM): 74.2%
- cell viability ([5]; 1000 nM): 62.8%
- cell viability ([5]; 10000 nM): 64.2%
- cell viability ([6]; 1 nM): 80.9%
- cell viability ([6]; 10 nM): 57.7%
- cell viability ([6]; 100 nM): 62%
- cell viability ([6]; 1000 nM): 27%
- cell viability ([6]; 10000 nM): 12.3%
- cell viability ([7]; 1 nM): 75.7%
- cell viability ([7]; 10 nM): 74.2%
- cell viability ([7]; 100 nM): 88.2%
- cell viability ([7]; 1000 nM): 44.8%
- cell viability ([7]; 10000 nM): 37.6%
- cell viability ([8]; 1 nM): 91.1%
- cell viability ([8]; 10 nM): 66.9%
- cell viability ([8]; 100 nM): 73.1%
- cell viability ([8]; 1000 nM): 61.7%
- cell viability ([8]; 10000 nM): 53.7%
- cell viability ([9]; 1 nM): 77.2%
- cell viability ([9]; 10 nM): 82.1%
- cell viability ([9]; 100 nM): 74.3%
- cell viability ([9]; 1000 nM): 38.1%
- cell viability ([9]; 10000 nM): 54.1%
- cell viability ([10]; 1 nM): 91.5%
- cell viability ([10]; 10 nM): 77.7%
- cell viability ([10]; 100 nM): 75.2%
- cell viability ([10]; 1000 nM): 43%
- cell viability ([10]; 10000 nM): 51%

Reference: the supplement of paper PMC8671470
